The assay has as its target T1, aromatase (Rattus norvegicus, UniProt P22443).
T1 construct: ovarian microsomes are obtained from rats treated with pregnant mares serum gonadotropin; from tissue; host or cells: ovarian microsomes from rats treated with pregnant mares serum gonadotropin
T1 sequence (P22443 1-508): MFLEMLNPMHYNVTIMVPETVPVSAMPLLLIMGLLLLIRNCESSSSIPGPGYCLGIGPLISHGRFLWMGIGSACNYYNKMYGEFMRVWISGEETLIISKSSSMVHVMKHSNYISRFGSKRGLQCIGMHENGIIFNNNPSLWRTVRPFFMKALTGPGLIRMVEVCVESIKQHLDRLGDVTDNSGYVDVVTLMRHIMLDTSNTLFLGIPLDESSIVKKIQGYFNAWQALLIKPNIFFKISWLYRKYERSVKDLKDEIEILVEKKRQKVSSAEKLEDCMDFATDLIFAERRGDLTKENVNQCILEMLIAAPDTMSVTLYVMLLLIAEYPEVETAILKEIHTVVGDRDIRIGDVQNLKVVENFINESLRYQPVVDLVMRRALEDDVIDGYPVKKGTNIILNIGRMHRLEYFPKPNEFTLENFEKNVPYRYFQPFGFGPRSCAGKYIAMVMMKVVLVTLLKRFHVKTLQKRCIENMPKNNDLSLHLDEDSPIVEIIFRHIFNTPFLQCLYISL
The experiment in a line: Aromatase inhibition in the rat ovarian microsome assay. The format is biochemical. The conditions noted are these: rat ovarian microsomes; substrate (androstenedione) concentration 0.1 μM.

Broadly, the EC50 is the concentration at which the effect is half-maximal. High values mean lower potency in that assay, low ones higher potency in that assay.

Description: In this test system, ovarian microsomes are obtained from rats treated with pregnant mares serum gonadotropin. Test compounds are added to reaction vials containing 0.1 μM 4-androstene-3,17-dione, 100,000 dpm 1,2[^3 H]-androstenedione, the microsomes and a NADPH generating system. The concentrations of the inhibitors tested ranged between 0.005 and 10 μM.

The compound `c1ccc2c(c1)CCc1ccccc1C2n1ccnc1` [1-(10,11-dihydro-5H--dibenzo-[a,d]cyclohepten-5-yl)-1H--imidazole nitrate] gave an EC50 of 2000 nM.

For the origin of these results see US4757082A, “Method of inhibiting aromatase” (Eli Lilly and Company, priority 1984, dated 1988).
